Target: T1, progesterone receptor (PR) (Homo sapiens, UniProt P06401)
T1 construct: Cells were co-transfected with expression plasmids for full-length hGR and PRβ; expressed in transfected cells; host or cells: LNCaP cells
T1 sequence (P06401 1-933): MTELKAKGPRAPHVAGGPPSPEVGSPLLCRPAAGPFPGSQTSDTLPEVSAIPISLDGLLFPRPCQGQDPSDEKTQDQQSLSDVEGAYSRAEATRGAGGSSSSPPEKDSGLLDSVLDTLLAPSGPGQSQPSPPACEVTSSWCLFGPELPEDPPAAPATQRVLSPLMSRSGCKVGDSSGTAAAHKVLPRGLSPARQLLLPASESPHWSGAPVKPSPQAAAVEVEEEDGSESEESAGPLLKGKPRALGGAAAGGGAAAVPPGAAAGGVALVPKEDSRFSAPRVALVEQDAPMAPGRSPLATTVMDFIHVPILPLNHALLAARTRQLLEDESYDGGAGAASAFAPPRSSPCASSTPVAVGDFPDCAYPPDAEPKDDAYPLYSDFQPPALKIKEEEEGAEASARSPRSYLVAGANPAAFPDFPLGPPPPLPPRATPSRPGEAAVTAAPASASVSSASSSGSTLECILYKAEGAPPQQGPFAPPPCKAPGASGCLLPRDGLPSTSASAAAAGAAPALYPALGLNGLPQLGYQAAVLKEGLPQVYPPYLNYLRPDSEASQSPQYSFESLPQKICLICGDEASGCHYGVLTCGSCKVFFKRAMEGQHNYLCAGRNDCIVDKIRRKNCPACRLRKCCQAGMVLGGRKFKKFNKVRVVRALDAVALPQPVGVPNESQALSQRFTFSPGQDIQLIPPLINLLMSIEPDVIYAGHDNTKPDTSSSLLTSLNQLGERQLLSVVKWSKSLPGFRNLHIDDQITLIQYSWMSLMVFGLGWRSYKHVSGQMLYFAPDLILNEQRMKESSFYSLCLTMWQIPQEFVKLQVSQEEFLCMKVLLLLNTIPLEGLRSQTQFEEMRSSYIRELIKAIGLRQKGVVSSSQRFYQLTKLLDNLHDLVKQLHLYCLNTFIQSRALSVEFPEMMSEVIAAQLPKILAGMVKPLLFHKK
Assay: PRE-luciferase reporter assay in LNCaP cells transfected with PRβ
Type: cell-based
Conditions: 5 μg/ml, progesterone 10 nM, 24 h
Description: White bars represent no steroid (ethanol control). Wherein glucocorticoid receptor (GR) and progesterone receptor (PR).
Sequence similarities of amino acids in the AR with related human steroid receptors (glucocorticoid receptor (GR) and progesterone receptor (PR)) are significant in some domains such as the DNA-binding-domain (DBD). Although the AR-NTD shares less than 15% homology with the PR and GR, these receptors do interact with some of the same proteins such as SRC-1 (steroid receptor coactivator-1). Therefore, reporter gene assays were used to determine if candidate compounds that block AR activity have any effect on GR and PR transcriptional activity. Cells were co-transfected with expression plasmids for full-length hGR and PRβ and the relative reporter (i.e., pGR-Luc or PRE-E1b-Luc reporters). Cells were then treated with ethanol vehicle, dexamethasone (GR), 4-pregnene-3,20 dione (progesterone) (PR) followed by measurement of luciferase activity.

Structure (SMILES): CCC(=O)N[C@H](C[C@H](C)C(Cl)(Cl)Cl)C(=O)N1C(=O)C=C(OC)[C@@H]1C[C@H](C)C(Cl)Cl [CB3.1, Sintokamide A]
- PRE-luciferase activity in response to ligand: did not inhibit

Reference: US9487479B2, “Small molecule inhibitors of N-terminus activation of the androgen receptor” (The University of British Columbia, priority 2008, dated 2016)
